± gives the expanded uncertainty stated by the source.
Settings: Liquid, Calculated from knudsen effusion weight loss

vapor or sublimation pressure (343 K): 0.0263 ± 0.0041 kPa
vapor or sublimation pressure (347.9 K): 0.0372 ± 0.006 kPa
vapor or sublimation pressure (348 K): 0.0374 ± 0.006 kPa
vapor or sublimation pressure (352.9 K): 0.0523 ± 0.0086 kPa
vapor or sublimation pressure (353 K): 0.0527 ± 0.0087 kPa
Structure (SMILES): O=C1CCCCCN1 [1-aza-2-cycloheptanone]

Reference: the NIST ThermoML archive (doi:10.1021/je1005054)
